# Reference: US7662851B2, “Use of specific cyklolignans” (Axelar AB, priority 2001, dated 2010)
# Like-named read-outs stand apart in the source and are kept apart here.
# Assays:
# IGF-1R = IGF-1R (Homo sapiens, UniProt P08069); assay: Tyrosine phosphorylation of IGF-1R in intact FM55 melanoma cells; format: cell-based; parameters: endogenous in cells; conditions: for Level of IGF-1R phosphorylation in intact cells: FM55 melanoma cells, 1 h, means of 3 experiments
# Method: Cells were cultured to subconfluency in 6-cm plates, and then fresh medium containing 10% FBS and the desired compounds were added for 1 h. The cells were then lyzed and subjected to immunoprecipitation using specific antibodies. Immunoprecipitates were resolved by sodium dodecyl sulphate polyacrylamide gel electrophoresis (SDS-PAGE) and transferred to nitro-cellulose membranes and incubated with anti-phosphotyrosine antibody. Antibodies to actin (in cell extract) or IGF-1R beta subunit were used as loading controls. After detection the films were scanned for quantification.
# The isolated cells were then lyzed in 10 ml ice-cold PBSTDS containing protease inhibitors (Carlberg, M., et al., J Biol Chem 271:17453-17462, 1996). 50 μl protein A or G agarose was added in 1 ml sample and incubated for 15 min at 4° C. on an orbital shaker. After centrifugation for 10 min at 10,000 r/min at 4° C. the supernatant was saved. The protein content was determined by a dye-binding assay with a reagent purchased from Bio-Rad. Bovine serum albumin was used as a standard. 15 μl Protein G Plus agarose and 5 μl anti-IGF-1R were added. After a 3 h incubation at 4° C. on an orbital shaker the precipitate was collected by pulse centrifugation in a micro centrifuge at 14,000×g for 10 s. The supernatant was discarded and the pellet was washed 3 times with PBSTDS.
# Protein samples were solved in a 2×-sample buffer containing Laemmli buffer and 0.5% […] and boiled for 5 min at 96° C. Samples were separated by SDS-PAGE with a 4% stacking gel and 7.5% separation gel. Molecular weight markers (Bio Rad, Sweden) were run simultaneously in all experiments.
# Following SDS-PAGE the proteins were transferred overnight to nitro-cellulose membranes (Hybond, Amersham, UK) and then blocked for 1 h at room temperature in a solution of 4% skimmed milk powder and 0.02% Tween 20 in PBS, pH 7.5. Incubations with the primary antibodies were performed for 1 h at room temperature, followed by 3 washes with PBS with Tween and incubation with the second antibody for 1 h room temperature. After another 3 washes the membranes were incubated with Streptavidin-labelled horseradish peroxidase for 30 min and then detected using Amersham ECL system (Amersham, UK). The films were scanned by Fluor-S (BioRad).
# FM55 melanoma cells were seeded in 6-cm dishes, at a concentration of 10,000 cells/cm^2 in Minimal Essential Medium supplemented with 10% fetal calf serum (FCS). When the cells reached a density of 65,000 cells/cm^2 in the dishes, they were treated for 1 h with 0.05 μM podophyllotoxin, deoxypodophyllotoxin, picropodophyllin, deoxypicropodophyllin, 4′-demethyl-7-(4,6-O-ethylidene-β-D-glucopyranosyl)epipodophyllotoxin (etoposide) and podophyllotoxin-4,6-O-benzylidene-β-D-glucopyranoside (pf-4,6-O). Etoposide and pf-4,6-O were also administered at 15 μM. The cells were then harvested for assay and quantification of IGF-1R phosphorylation as described in Experiment 1. The values shown in Table 1 represent means of 3 experiments.
# FM55 melanoma cells were cultured in the same way as described in Experiment 1. When reaching a density of 65,000 cells/cm^2 in the dishes, they were treated for 1 h with 0 (control) and 0.05 μM of picropodophyllin and podophyllotoxin, respectively. The cells were then isolated and subjected to immunoprecipitation of the IGF-1R, fibroblast growth factor receptor (FGFR), platelet-derived growth factor receptor (PDGFR), epidermal growth factor receptor (EGFR), insulin receptor (IR) and insulin substrate-1 (IRS-1) using antibodies to respective molecules. IRS-1 is a substrate of IGF-1R, and therefore its phosphorylation is dependent on phosphorylated IGF-1R. Gelelectrophoresis, Western blotting and quantification of the different signals were performed as described above.
# [1] = tested on: K562/S chronic myeloid leukemia cells; assay: Leukemia cell viability, K562/S; format: cell-based, human; conditions: 72 h
# Method: (§1) The human chronic myeloid leukemia K562/S and K562/Vcr30 lines and the acute myeloid leukemia cell lines HL60/0 and HL60/Nov were obtained from ATCC. The K562/S and […] are wild type (non-resistant) cells, whereas K562/Vcr30 and HL60/Nov are cytostatic-resistant sublines. All leukemia cell lines were cultured in RPMI 1640 medium supplemented with 10% fetal bovine serum and with 2 mM L-glutamine, benzylpenicillin (100 U/ml) and streptomycin (100 μg/ml). The cells were grown in tissue culture flasks maintained at 95% air/5% CO2 atmosphere at 37° C. in a humidified incubator. For the experiments cells were cultured in 60-mm plastic dishes or 96-well plastic plates.
# (§2) Cell proliferation kit II (Roche Inc.) is based on colorimetric change of the yellow tetrazolium salt XTT in orange formazan dye by the respiratory chain of viable cells (Roehm, N W, et al., J Immunol Methods 142:257-265, 1991). Cells seeded at a concentration of 5000/well in 100 μl medium in a 96-well plate were treated with different drugs in the given concentration. After 24 or 48 h the cells were incubated, according to the manufacturer's protocol, with XTT labelling mixture. After 4 h the formazan dye is quantified using a scanning multiwell spectrophotometer with a 495-nm filter. The absorbance is directly correlated with the number of viable cells. The standard absorbance curve was drawn by means of untreated cells seeded at a concentration of from 1000 to 10 000 cells/well with an increasing rate of 1000 cells/well. All standards and experiments were performed in triplicates.
# (§3) Cells of said cell lines were seeded in 96-well plates (25 000 cells/well, medium volume per well was 100 μl), in […] medium supplemented with fetal calf serum. After 24 h picropodophyllin and the derivatives alpha-apopicropodophyllin and beta-apopicropodo-phyllin were added at different concentrations and the cells were incubated for 72 h. Cell viability was then assayed (see above). […] The results are based on 3 different experiments.
# (§4) The leukemia cell lines K562/S, […], HL60/0 and HL60/Nov were cultured in 96-well plates as described in Experiment 7. After 24 h, the cells were treated for 72 h with different concentrations of the anti-cancer agent vincristine, with and without co-incubation with 0.05 μM picropodophyllin. […] Cell viability was then assayed. IC50 values for each inhibitor and cell line are shown below (Table 8). The results are based on 3 different experiments.
# [2] = tested on: HL60/0 acute myeloid leukemia cells; assay: Leukemia cell viability, HL60/0; format: cell-based, human
# Method: as §1, §2, §3, §4
# [3] = tested on: HL60/Nov acute myeloid leukemia cells; assay: Leukemia cell viability, HL60/Nov; format: cell-based, human
# Method: as §1, §2, §3, §4
# [4] = tested on: K562/Vcr30 chronic myeloid leukemia cells; assay: Leukemia cell viability, K562/Vcr30; format: cell-based, human; conditions: K562/Vcr30, 72 h
# Method: as §1, §2, §3, §4
# [5] = Systemic toxicity, daily intraperitoneal injection in nude mice; conditions: for Signs of disease: up to 5 days
# Method: Four to five-week old pathogen-free nude mice (nu/nu) were used and housed within plastic isolators in a sterile facility. […] Experimental treatments with podophyllotoxin, deoxypodophyllotoxin or picropodophyllin were performed by daily intraperitoneal injections of the compound in 100 μl volume of solvent, composed of a mixture of DMSO and physiological saline (8:2). Control mice were treated with the solvent. 3-6 animals were treated in each group. Animals were monitored three times a week for signs of disease and tumor growth. Tumor mass was estimated using the formula (d^2×D)/2, where d and D represent the small and large diameters of the tumor, respectively. The mice were carefully observed for presence of side effects and were sacrificed at the end of the experiments for histological analysis of the lesions. All experiments were performed according to the ethical guidelines for laboratory animal use, provided by institutional ethical committee.
# In the next experiment we analyzed systemic effects of the drugs by injecting 100 μl intraperitoneally of each compound daily over 5 days. Two doses were injected (7 or 28 mg/kg/d) and 3-6 mice were used for each drug and dose. The mice were checked carefully daily for signs of discomfort, diseases and weight loss.
# [6] = Local toxicity, subcutaneous osmotic pumps in nude mice; format: in vivo; conditions: subcutaneous osmotic pump loaded with 0.25 mg, 7 days
# Method: Control mice were treated with the solvent. 3-6 animals were treated in each group.
# The first set of experiments was carried out to investigate possible local and systemic toxic effects of podophyllotoxin, deoxypodophyllotoxin and picropodophyllin on nude mice. In the first experiment osmotic pumps loaded with either drug-free solvent, podophyllotoxin (0.25 mg), deoxypodophyllotoxin (0.25 mg) or picropodophyllin (0.25 mg) were implanted subcutaneously in the flank region. The drugs are delivered subcutaneously with a constant flow of 0.6 μl/h over 7 days. The volume of the pumps was 100 μl. After 7 days the mice were killed and the skin and subcutaneous tissue adjacent to the outlet of the pumps were analyzed and scored for tissue reactions by an experienced pathologist. There were 3 mice in each group.
# [7] = read-out: IC50 for cell viability
# [8] = HL60, 72 h, read-out: IC50 for cell viability
# [9] = 72 h, read-out: IC50 for cell viability
# [10] = Homo sapiens, read-out: IC50 for cell viability, vincristine alone
# IGF-1R, sequence (P08069 31-1367): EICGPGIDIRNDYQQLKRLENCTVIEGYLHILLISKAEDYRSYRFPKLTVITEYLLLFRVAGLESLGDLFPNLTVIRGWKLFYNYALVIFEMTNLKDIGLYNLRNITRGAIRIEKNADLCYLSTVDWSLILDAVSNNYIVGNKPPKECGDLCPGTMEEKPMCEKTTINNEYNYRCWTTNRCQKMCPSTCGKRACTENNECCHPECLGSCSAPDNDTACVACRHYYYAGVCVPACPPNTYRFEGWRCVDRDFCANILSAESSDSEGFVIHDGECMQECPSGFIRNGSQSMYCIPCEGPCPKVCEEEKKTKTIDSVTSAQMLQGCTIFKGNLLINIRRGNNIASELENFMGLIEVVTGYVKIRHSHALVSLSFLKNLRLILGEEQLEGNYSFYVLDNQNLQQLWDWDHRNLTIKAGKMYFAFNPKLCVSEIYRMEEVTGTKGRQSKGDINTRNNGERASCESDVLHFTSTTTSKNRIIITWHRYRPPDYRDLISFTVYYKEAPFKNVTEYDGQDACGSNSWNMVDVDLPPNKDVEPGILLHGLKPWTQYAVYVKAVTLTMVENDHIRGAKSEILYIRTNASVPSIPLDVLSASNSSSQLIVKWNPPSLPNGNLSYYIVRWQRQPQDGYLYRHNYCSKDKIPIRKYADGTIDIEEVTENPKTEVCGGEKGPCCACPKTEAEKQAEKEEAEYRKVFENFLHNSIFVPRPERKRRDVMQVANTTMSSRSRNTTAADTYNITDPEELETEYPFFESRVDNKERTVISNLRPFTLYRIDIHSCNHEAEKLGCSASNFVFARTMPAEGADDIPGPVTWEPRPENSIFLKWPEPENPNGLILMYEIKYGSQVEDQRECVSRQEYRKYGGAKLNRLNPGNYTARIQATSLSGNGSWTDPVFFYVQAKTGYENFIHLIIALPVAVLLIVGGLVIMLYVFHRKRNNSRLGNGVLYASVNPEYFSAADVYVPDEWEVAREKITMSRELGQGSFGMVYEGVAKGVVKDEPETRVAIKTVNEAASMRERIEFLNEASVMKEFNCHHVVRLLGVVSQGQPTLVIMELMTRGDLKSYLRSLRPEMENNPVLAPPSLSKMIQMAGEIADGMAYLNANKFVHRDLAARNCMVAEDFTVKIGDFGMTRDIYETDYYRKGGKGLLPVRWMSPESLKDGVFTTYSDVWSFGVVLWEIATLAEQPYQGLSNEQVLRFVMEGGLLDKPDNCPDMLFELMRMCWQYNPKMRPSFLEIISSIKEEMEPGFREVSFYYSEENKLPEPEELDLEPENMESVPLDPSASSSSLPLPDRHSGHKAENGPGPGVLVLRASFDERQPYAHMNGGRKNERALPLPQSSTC
molecule,measurement,setting,value
"COc1cc([C@@H]2c3cc4c(cc3[C@@H](O[C@@H]3O[C@@H]5CO[C@@H](C)O[C@H]5[C@H](O)[C@H]3O)[C@H]3COC(=O)[C@H]23)OCO4)cc(OC)c1O [Etoposide, 4′-demethyl-7-(4,6-O-ethylidene-β-D-glucopyranosyl)epipodophyllotoxin]",Level of IGF-1R phosphorylation in intact cells,IGF-1R; 0.05 μM,102 % OD
same,Level of IGF-1R phosphorylation in intact cells,IGF-1R; 15 μM,105 % OD
"COc1cc([C@@H]2c3cc4c(cc3C[C@H]3COC(=O)[C@H]32)OCO4)cc(OC)c1OC [Deoxypicropodophyllin, deoxypicropodophyllin]",Level of IGF-1R phosphorylation in intact cells,IGF-1R; 0.05 μM,5 % OD
β-apopicropodophyllin [Beta-apopicro],IC50,[1]; [7],10 nM
same,IC50,[2]; [8],10 nM
same,IC50,[3]; [9],10 nM
same,IC50,[4]; [7],10 nM
"COc1cc([C@@H]2c3cc4c(cc3C=C3COC(=O)[C@H]32)OCO4)cc(OC)c1OC [Alpha-apopicro, α-apopicropodophyllin]",IC50,[1]; [7],40 nM
same,IC50,[2]; [8],20 nM
same,IC50,[3]; [9],20 nM
same,IC50,[4]; [7],50 nM
"COc1cc([C@@H]2c3cc4c(cc3C[C@H]3COC(=O)[C@@H]32)OCO4)cc(OC)c1OC [Deoxypodophyllotoxin, deoxypodophyllotoxin]",Level of IGF-1R phosphorylation in intact cells,IGF-1R; 0.05 μM,2 % OD
same,Surviving mice/Investigated mice,"[5]; 7 mg/kg/d i.p., 1 d",3/3
same,Surviving mice/Investigated mice,"[5]; 7 mg/kg/d i.p., 2 d",3/3
same,Surviving mice/Investigated mice,"[5]; 7 mg/kg/d i.p., 3 d",3/3
same,Surviving mice/Investigated mice,"[5]; 7 mg/kg/d i.p., 4 d",3/3
same,Surviving mice/Investigated mice,"[5]; 7 mg/kg/d i.p., 5 d",3/3
same,Surviving mice/Investigated mice,"[5]; 28 mg/kg/d i.p., 1 d",6/6
same,Surviving mice/Investigated mice,"[5]; 28 mg/kg/d i.p., 2 d",4/6
same,Surviving mice/Investigated mice,"[5]; 28 mg/kg/d i.p., 3 d",0/6
same,Signs of disease,[5]; high dose (28 mg/kg/d) i.p. daily,serious disease or death
same,Signs of disease,[5]; low dose (7 mg/kg/d) i.p. daily,serious signs of disease
same,Local tissue reactions,[6],light damages
"CC[C@]1(O)C[C@H]2CN(CCc3c([nH]c4ccccc34)[C@@](C(=O)OC)(c3cc4c(cc3OC)N(C=O)[C@H]3[C@@](O)(C(=O)OC)[C@H](OC(C)=O)[C@]5(CC)C=CCN6CC[C@]43[C@@H]65)C2)C1 [Vincristine, vincristine, reference compound]",IC50,[1]; [10],1.6 nM
same,IC50,"[2]; Homo sapiens, HL-60, HL60/0, 72 h, read-out: IC50 for cell viability, vincristine alone",0.8 nM
same,IC50,"[3]; Homo sapiens, HL-60, 72 h, read-out: IC50 for cell viability, vincristine alone",1.2 nM
same,IC50,[4]; [10],5 nM
"COc1cc(C2c3cc4c(cc3C(OC3OC5COC(c6ccccc6)OC5C(O)C3O)C3COC(=O)C23)OCO4)cc(OC)c1OC [Pf-4,6-O, podophyllotoxin-4,6-O-benzylidene-β-D-glucopyranoside]",Level of IGF-1R phosphorylation in intact cells,IGF-1R; 0.05 μM,100 % OD
same,Level of IGF-1R phosphorylation in intact cells,IGF-1R; 15 μM,102 % OD
same,Effect on IGF-1R,IGF-1R; stated in description,completely disappeared
